According to patent publication US4963552A, “1-substitute-1,2-dihydro-4-((substituted)phenyl)imidazo-[1,5-a] pyrimidine-8-carbonitriles” (American Cyanamid Company, priority 1989, dated 1990):
Counter-ions that a name gives are not always drawn.

Key:
[1] = biological target: T1, [^3 H]-imipramine receptor (human platelet membranes) (Homo sapiens, UniProt P31645); test: Inhibition of [^3 H]-imipramine binding to human platelet membranes; details: 10 μm test compound, 90 minutes at 0° C., duplicate, more than 50% considered active; for inhibition at 10 µM: 1.5 h
T1 construct: Platelet membranes were obtained using the procedure described by Wennogle, L. P., et al; tissue New York Blood Center; host or cells: human platelets (washed, sonicated membranes)
Description: The activity of the compounds of this invention as antidepressant agents was verified in the following test which measures the ability of a test compound to inhibit [^3 H]-imipramine binding to human platelet membranes.
Platelet membranes were obtained using the procedure described by Wennogle, L. P., et al., Pharmac. Biochem Behav., 15, 975 (1981). Fresh human platelet concentrates(less than 48 hours old) were obtained from the New York Blood Center. These concentrates were prepared in a citrate-dextrose anticoagulant using standard techniques. Platelets were washed twice by centrifugation (2500 x G, 10 minutes) in 50 volumes of an antiprotease buffer containing 0.005M potassium chloride, 0.12M sodium chloride, 0.05M Tris pH 7.5, 0.025 Units/ml aprotinin, 0.5 μg/m pepstatin, […] bacitracin, 3 mM ethylenediaminetetraacetic acid and 1.0 mM ethylene glycol-bis(β-aminoethyl ether)-N,N'-tetraacetic acid. […] All procedures were conducted at 0° C. using plastic laboratory ware throughout the platelet membrane preparation. Platelets were resuspended in 20 volumes of buffer and sonicated 3 times using 10 second bursts of a Branson sonifier (cell disrupter 350) at setting 6 (standard 3/4 inch horn), keeping the sample on ice throughout the procedure. Platelet membranes were then washed twice at 18,000 x G for 20 minutes with 50 volumes of the antiprotease buffer and resuspended to 3.0 mg protein/ml using the Bradford protein analysis with bovine gamma globulin as standard. Membranes were used immediately or stored frozen in liquid nitrogen.
The displacement of [^3 H]-imipramine binding to human platelet membranes was performed essentially as described by Paul, S. M., et al , Life Sci., 26, 953 (1980) with the following modifications. Membranes (0.3 mg protein) were suspended in antiprotease buffer with both […] [^3 H]-imipramine (New England Nuclear) and displacing drug or buffer in a total volume of 250 μl in glass test tubes. Samples were incubated for 90 minutes at 0° C., then diluted to 5 ml in […] sodium chloride, 0.005M potassium chloride, 0.05 Tris pH 7.5 (wash buffer) and immediately filtered through GF/B Whatman Filters and washed twice with 5 ml of wash buffer. Filters were counted in a liquid scintillation counter after addition of Beckman Hp Scintillant.
Non-specific binding of [^3 H]-imipramine was defined as that fraction (generally 35%) of radioactivity that was not displaced by 10 μm desmethylimipramine. Specific binding was determined by subtraction of this non-specific level from values for total [^3 H]-imipramine binding which were measured by incubating [^3 H]-imipramine in the absence of displacing drug. Compounds were tested in duplicate test tubes at a concentration of 10 μm. Compounds which inhibited binding by more than 50% were considered to be active.

[2] = tested on: spontaneously hypertensive rats of the Okamoto strain; test: Reduction of mean arterial blood pressure in spontaneously hypertensive rats; format: in vivo, rat; details: second identical dose at 24 h, measured at 28 h, male SHR, average MABP 160±1.5 mm of mercury
Description: These compounds were tested for hypotensive activity by the method of P. S. Chan and D. W. Poorvin, Clinical and Experimental Hypertension, 1 (6), 817-830 (1979). Male, 16 week old, spontaneously hypertensive rats of the Okamoto strain having an average mean arterial blood pressure of 160±1.5 mm of mercury are used in the test. One to three rats are used per test compound. The test compound is suspended in 2% pre-boiled starch at a concentration of 50 mg/ml, and a rat is dosed by gavage at a dose of 100 mg/kg of body weight or less, with 0.9% sodium chloride loading at a dose of 25 ml/kg of body weight. A second identical dose of the test compound, without sodium chloride loading, is given 24 hours later. At 28 hours after the initial dose the mean arterial blood pressure is measured by the method of Chan and Poorvin vide supra. The procedure is repeated in a second and third rat when necessary.

T1 sequence (P31645 whole entry): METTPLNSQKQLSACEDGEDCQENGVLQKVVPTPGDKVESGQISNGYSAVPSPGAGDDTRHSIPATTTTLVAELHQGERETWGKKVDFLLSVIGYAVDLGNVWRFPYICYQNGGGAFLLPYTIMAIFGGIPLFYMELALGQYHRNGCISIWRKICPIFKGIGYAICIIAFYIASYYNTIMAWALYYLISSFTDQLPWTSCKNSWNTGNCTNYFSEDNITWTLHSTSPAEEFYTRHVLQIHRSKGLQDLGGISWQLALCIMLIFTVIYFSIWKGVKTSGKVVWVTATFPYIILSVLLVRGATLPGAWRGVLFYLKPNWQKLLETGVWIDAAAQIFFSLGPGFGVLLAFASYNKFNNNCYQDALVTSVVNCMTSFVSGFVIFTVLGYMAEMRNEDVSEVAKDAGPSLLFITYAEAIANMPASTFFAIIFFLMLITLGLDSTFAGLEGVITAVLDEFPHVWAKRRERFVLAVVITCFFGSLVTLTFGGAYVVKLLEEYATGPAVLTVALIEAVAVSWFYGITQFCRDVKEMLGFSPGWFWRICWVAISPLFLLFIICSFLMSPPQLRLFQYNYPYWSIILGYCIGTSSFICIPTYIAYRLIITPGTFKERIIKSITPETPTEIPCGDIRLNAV

Structure (SMILES)	inhibition at 10 µM [1] [%]	MABP/mm Hg (mean arterial blood pressure) ([2]; 100 mg/kg by gavage) [mm Hg]	other results
N#Cc1ncn2c1N(C(=O)CCN1CCN(CCCOc3ccccc3)CC1)CC=C2c1cccc(C(F)(F)F)c1 [Example 21, 1,2-Dihydro-1-[1-oxo-3-[4-(3-phenoxypropyl)-1-piperazinyl]propyl]-4-[3-(trifluoromethyl)phenyl]imidazo[1,5-a]pyrimidine-8-carbonitrile]	66		
COc1cccc(CN2CCN(CC(=O)N3CC=C(c4cccc(C(F)(F)F)c4)n4cnc(C#N)c43)CC2)c1 [Example 5, 1,2-Dihydro-1-[[4-[(3-methoxyphenyl)methyl]-1-piperazinyl]acetyl]-4-[3-(trifluoromethyl)phenyl]imidazo[1,5-a]pyrimidine-8-carbonitrile]			% Inhibition of [^3 H]-imipramine binding [1]: 81%
N#Cc1ncn2c1N(C(=O)CN1CCC(c3ccccc3)CC1)CC=C2c1cccc(C(F)(F)F)c1 [Example 25, 1,2-Dihydro-1-[(4-phenyl-1-piperidinyl)acetyl]-4-[3-(trifluoromethyl)phenyl]imidazo[1,5-a]pyrimidine-8-carbonitrile]		137	
N#Cc1ncn2c1N(C(=O)CCN1CCN(c3ccc(F)cc3)CC1)CC=C2c1cccc(C(F)(F)F)c1 [Example 16, 1-[3-[4-(4-Fluorophenyl)-1-piperazinyl]-1-oxopropyl]-1,2-dihydro-4-[3-(trifluoromethyl)phenyl]imidazo[1,5-a]pyrimidine-8-carbonitrile]	78	110	
N#Cc1ncn2c1N(C(=O)CN1CCN(c3ccc(Cl)cc3)CC1)CC=C2c1cccc(C(F)(F)F)c1 [Example 13, 1-[[4-(4-Chlorophenyl)-1-piperazinyl]acetyl]-1,2-dihydro-4-[3-(trifluoromethyl)phenyl]imidazo[1,5-a]pyrimidine-8-carbonitrile]		137	
COc1ccc(Cl)cc1NCC(=O)N1CC=C(c2cccc(C(F)(F)F)c2)n2cnc(C#N)c21 [1-[[(5-Chloro-2-methoxyphenyl)amino]acetyl]-1,2-dihydro-4-[3-(trifluoromethyl)phenyl]imidazo[1,5-a]pyrimidine-8-carbonitrile]		135	
C#CCN1CCN(CC(=O)N2CC=C(c3cccc(C(F)(F)F)c3)n3cnc(C#N)c32)CC1.Cl.Cl [Example 14, 1,2-Dihydro-1-[[4-(2-propynyl)-1-piperazinyl]acetyl]-4-[3-(trifluoromethyl)phenyl]imidazo[1,5-a]pyrimidine-8-carbonitrile, dihydrochloride]		129	
N#Cc1ncn2c1N(C(=O)CCN1CCN(Cc3ccc(Cl)cc3)CC1)CC=C2c1cccc(C(F)(F)F)c1 [Example 20, 1-[3-[4-[(4-Chlorophenyl)methyl]-1-piperazinyl]-1-oxopropyl]-1,2-dihydro-4-[3-(trifluoromethyl)phenyl]imidazo[1,5-a]pyrimidine-8-carbonitrile]	75	128	
N#Cc1ncn2c1N(C(=O)CN1CCN(CCCOc3ccccc3)CC1)CC=C2c1cccc(C(F)(F)F)c1 [Example 9, 1,2-Dihydro-1-[[4-(3-phenoxypropyl)-1-piperazinyl]acetyl]-4-[3-(trifluoromethyl)phenyl]imidazo[1,5-a]pyrimidine-8-carbonitrile]	50	130	
N#Cc1ncn2c1N(C(=O)CCN1CCN(c3ccc(Cl)cc3)CC1)CC=C2c1cccc(C(F)(F)F)c1 [Example 18, 1-[3-[4-(4-Chlorophenyl)-1-piperazinyl]-1-oxopropyl]-1,2-dihydro-4-[3-(trifluoromethyl)phenyl]imidazo[1,5-a]pyrimidine-8-carbonitrile]	53	118	
CCOC(=O)N1CCN(CCC(=O)N2CC=C(c3cccc(C(F)(F)F)c3)n3cnc(C#N)c32)CC1.Cl [Example 19, 4-[3-[8-Cyano-4-[3-(trifluoromethyl)phenyl]imidazo[1,5-a]pyrimidine-1(2H)-yl]-3-oxopropyl]-1-piperazinecarboxylic acid, ethyl ester monohydrochloride]		134	
N#Cc1ncn2c1N(C(=O)CN1CCN(C(c3ccccc3)c3ccc(Cl)cc3)CC1)CC=C2c1cccc(C(F)(F)F)c1 (stereo not shown) [Example 10, 1-[[4-[(4-Chlorophenyl)phenylmethyl]-1-piperazinyl]acetyl]-1,2-dihydro-4-[3-(trifluoromethyl)phenyl]imidazo[1,5-a]pyrimidine-8-carbonitrile]		137	
N#Cc1ncn2c1N(C(=O)CCN1CCN(c3ccccc3)CC1)CC=C2c1cccc(C(F)(F)F)c1 [Example 17, 1,2-Dihydro-1-[1-oxo-3-(4-phenyl-1-piperazinyl]propyl]-4-[3-(trifluoromethyl)phenyl]imidazo[1,5-a]pyrimidine-8-carbonitrile]		115	
COc1cccc(CN2CCN(CC(=O)N3CC=C(c4cccc(C(F)(F)F)c4)n4cnc(C#N)c43)CC2)c1 [Example 6, 1,2-Dihydro-1-[[4-[(3-methoxyphenyl)methyl]-1-piperazinyl]acetyl]-4-[3-trifluoromethyl)phenyl]imidazo[1,5-a]pyrimidine-8-carbonitrile, dihydrochloride]	75		
CC(C)N1CCN(CCC(=O)N2CC=C(c3cccc(C(F)(F)F)c3)n3cnc(C#N)c32)CC1 [Example 24, 1,2-Dihydro-1-[3-[4-(1-methylethyl)-1-piperazinyl]-1-oxopropyl]-4-[3-(trifluoromethyl)phenyl]imidazo[1,5-a]pyrimidine-8-carbonitrile]			MABP/mm Hg (mean arterial blood pressure) ([2]; 50 mg/kg by gavage): 133 mm Hg
N#Cc1ncn2c1N(C(=O)CN1CCN(Cc3ccc(Cl)cc3)CC1)CC=C2c1cccc(C(F)(F)F)c1 [Example 11, 1-[[4-[(4-Chlorophenyl)methyl]-1-piperazinyl]acetyl]-1,2-dihydro-4-[3-(trifluoromethyl)phenyl]imidazo[1,5-a]pyrimidine-8-carbonitrile]	93		
N#Cc1ncn2c1N(C(=O)CCN1CCN(Cc3ccccc3)CC1)CC=C2c1cccc(C(F)(F)F)c1 [Example 22, 1,2-Dihydro-1-[1-oxo-3-[(4-phenylmethyl)-1-piperazinyl]propyl]-4-[3-(trifluoromethyl)phenyl]imidazo[1,5-a]pyrimidine-8-carbonitrile]	61		
N#Cc1ncn2c1N(C(=O)CCN1CCN(Cc3c(Cl)cccc3Cl)CC1)CC=C2c1cccc(C(F)(F)F)c1 [Example 23, 1-[4-[4-[(2,6-Dichlorophenyl)methyl]-1-piperazinyl]-1-oxopropyl]-1,2-dihydro-4-[3-(trifluoromethyl)phenyl]imidazo[1,5-a]pyrimidine-8-carbonitrile]	98		
